Measurements taken from US11406622B2, “Glaucocalyxin a derivative, pharmaceutically acceptable salt thereof, or pharmaceutical composition thereof and uses thereof in preparation of drugs for treating psoriasis” (SUZHOU PHARMAVAN CO., LTD., priority 2017, dated 2022).
Like-named read-outs stand apart in the source and are kept apart here.

How the values were obtained:
[1] = tested on: human keratinocytes (HaCaT); test: Effect on proliferation of human keratinocytes, CCK-8, 48 h (Example 5); format: cell-based; conditions: 48 hours of treatment
Description: In this example, the glaucocalyxin A derivatives of the present application, or pharmaceutically acceptable salts thereof, were examined for the effect on the proliferation of human keratinocytes. In this example, the glaucocalyxin A derivatives as shown in Table 1 were examined by using the following procedure. A cell suspension was prepared and inoculated into three 96-well plates at 8000 cells in a volume of 150 μl per well, which were then cultured overnight in an incubator at 37° C., 5% CO2. On the next day, 50 μl of test compound solution at different concentrations was added to each well. Triplicate wells were set up for each concentration. A vehicle control group (without compound), a cell control group (without compound and vehicle), and a blank medium control group (without cells, a well for null adjustment) were also set up, and cultured for an additional 48 hours. CCK-8 staining working solution was added at 110 μL per well, and cultured for additional 1-4 h. At the end of the culture, the absorbances were measured at 450 nm (OD450 nm) on a Bio-Tek enzyme-linked immunosorbent assay. The results were expressed as the mean OD450 nm value of triplicates±standard deviation (x±sd). The Origin 7.0 was used for plotting and analysis. A fitting curve was obtained by plotting the OD value of each group against the logarithmic concentration of the test compound, and then the IC50 value was determined.

[2] = tested on: xylene-induced auricular swelling in mice; test: Xylene-induced auricular swelling in mice (Example 7); format: in vivo, mouse; conditions: 7 consecutive days, xylene on 8th day
Description: In this example, the glaucocalyxin A derivatives and pharmaceutically acceptable salts thereof were detected for the inhibitory effect thereof on xylene-induced auricular swelling in mice. Compound 23 was used as an exemplary compound, and the detection method was as follows.
20 mice were randomly divided into 4 groups with 5 mice in each group, which were blank control group, 30 mg/kg dexamethasone treatment group, Compound 23 (10 mg/kg) treatment group, and Compound 23 (50 mg/kg) treatment group, respectively. 0.25-0.3 mL depending on the body weight was intragastrically administrated for 7 consecutive days, and an equal volume of 5% glucose injection was administrated to the blank group. On the 8th day, xylene was used to produce a model of auricular swelling in the right auricle of mice. 15 μl of xylene, an inflammatory inducer, was applied to both sides of the right auricle of each mouse, and the left auricle was left un-treated as a normal auricle control. After 1 hour, the mice were sacrificed by cervical dislocation. Both auricles were cut off along the auricle baseline, and then punched at the same position by using a puncher with a diameter of 8 mm to give auricle pieces, which were then weighed on an electronic analytical balance. The auricular swelling rate and the auricular swelling inhibitory rate were calculated according to the following formula. […]

HaCaT keratinocytes = test: Time- and dose-dependent inhibition of proliferation of human keratinocytes, CCK-8 (Example 6); format: cell-based
Description: In this example, the glaucocalyxin A derivatives of the present application and pharmaceutically acceptable salts thereof were examined for the relationship between the inhibitory rate thereof on the proliferation of human keratinocytes and its concentration. Compound 23 as shown in Table 1 was used as an exemplary compound to be examined by using the following procedure.
A cell suspension was prepared and inoculated into three 96-well plates at 8000 cells in a volume of 150 μl per well, which were then cultured overnight in an incubator at 37° C., 5% CO2. On the next day, 50 μl of test compound solution at different concentrations was added to each well. Triplicate wells were set up for each concentration. A vehicle control group (without compound), a cell control group (without compound and without vehicle), and a blank medium control group (without cells, a well for null adjustment) were also set up, and cultured for additional 24, 48, and 72 hours. CCK-8 staining working solution was added at 110 μL per well, and cultured for additional 1-4 h. At the end of the culture, the absorbances were measured at 450 nm (OD450 nm) on a Bio-Tek enzyme-linked immunosorbent assay. The results were expressed as the mean OD450 nm value of the triplicates±standard deviation (x±sd). Prism Graph was used for plotting and analysis. The cell inhibitory rate of each group was calculated according to the mean value of the treatment group with each compound at each concentration and the mean value of the vehicle control group, that is, the cell inhibitory rate (%)=[1−(the mean value of the treatment group−the blank control group)/(the mean value of the vehicle control group−the blank control group)]×100%. A fitting curve was obtained by plotting the cell inhibitory rate of each group against the logarithmic concentration (Log C) of the test compound, and then the IC50 value was determined.

Q: With `Br.C=C1C(=O)C23C(O)CC4C(C)(C)c5nc(N(C)C)sc5CC4(C)C2CCC1C3O` (stereo not drawn) [Compound 23] as the compound, how does the IC50 [1] read?
A: 0.93 µM

Q: What about the “inhibition of auricular swelling” value ([2]; 10 mg/kg intragastric) of the same compound?
A: effective

Q: And the “inhibition of auricular swelling” value ([2]; 50 mg/kg intragastric)?
A: effective

Q: And the IC50 (HaCaT keratinocytes; 24 h, read-out: IC50 at 24 h)?
A: 1940 nM

Q: What about the IC50 (HaCaT keratinocytes; 48 h, read-out: IC50 at 48 h) of the same compound?
A: 933 nM

Q: And the IC50 (HaCaT keratinocytes; 72 h, read-out: IC50 at 72 h)?
A: 787 nM
